Reference: patent publication US4839376A, “Pyrazoline derivatives for treating cerebrovascular diseases” (Mitsui Toatsu Chemicals, Inc., priority 1987, dated 1989)
Like-named read-outs stand apart in the source and are kept apart here.

Tests used:
[1] = cited from earlier work; for protection of the brain from cerebral ischemia: literature
[2] = test system: ischemic cerebral edemas of rats caused by occlusion of the middle cerebral artery; experiment: Action upon ischemic cerebral edemas of rats caused by occlusion of the middle cerebral artery; format: in vivo, Wistar rats; settings: Rattus norvegicus, ip, 24 h, read-out: Cerebral Edema Inhibition Rate; for inhibition in vivo at 25 mg/kg: dose 25 mg/Kg i.p.; for inhibition in vivo at 30 mg/kg: dose 30 mg/Kg i.p.
Procedure: (Action upon ischemic cerebral edemas of rats caused by occlusion of the middle cerebral artery)
The compound being tested was suspended in 0.5% aqueous solution of CMC, and this suspension was intraperitoneally injected to each rat immediately after occlusion, and 8 hours and 16 hours later (a total of three times). Twenty-four hours after occlusion, each of the treated rats was sacrificed, the brain was excised, and the water content of hemispheres were determined by weighing the hemispheres before and after drying at 110° C. to the constant weight. On the other hand, the rats of the control group were subjected to arterial occlusion in the same way as above, followed by intraperitoneal injection of physiological saline three times a day. The cerebral edema inhibition rate of each compound was calculated from the following equation: [formula] where CL and CR represent the water contents of left and right hemispheres of the control group and SL and SR the water contents of left and right hemispheres of the treated group.

[3] = Acute toxicity (LD50) by intraperitoneal injection to mice; settings: mouse, in vivo, ip, mortality 48 hours after injection
Procedure: Acute toxicity (LD50) was determined by intraperitoneal injection of a compound being tested to mice and by calculation from the mortality 48 hours after injection by the usual method.

[4] = test system: cerebral infarction of rats caused by occlusion of the middle cerebral artery; experiment: Action against cerebral infarction of rats caused by occlusion of the middle cerebral artery (TTC stain, planimeter); format: in vivo; settings: i.p. three times, 24 h after occlusion
Procedure: (Action against cerebral infarction of rats caused by occlusion of the middle cerebral artery)
Cerebral infarction of rats caused by occlusion of the middle cerebral artery was measured by the method of Tamura et al. (Japan Clinics, 43, 185, 1985). The middle cerebral artery of rats was artificially occluded, the compound being tested was suspended in 0.5% aqueous solution of CMC, and this suspension was intraperitoneally injected to each rat immediately after occlusion, and 8 hours and 16 hours later (a total of three times). Twenty-four hours after occlusion, each of the treated rats was sacrificed, and the brain was excised, stained with TTC and cut into equal six parts from top to bottom. The cross-sections were photographed, and the ratio of infarcted areas to the whole brain was measured by means of a planimeter.

[5] = three times (immediately, 8 and 16 h after occlusion)
[6] = control group 11.58 ± 0.81, *5% significant difference
[7] = control group 11.58 ± 0.81, **1% significant difference
[8] = dose 50 mg/Kg i.p., three times (immediately, 8 and 16 h after occlusion)

| SMILES | inhibition in vivo at 25 mg/kg [2, 5] | LD50 at 48 h [3] | inhibition in vivo at 30 mg/kg [2, 5] | further results |
| --- | --- | --- | --- | --- |
| CCN(CC)Cc1nccn1-c1ccc([N+](=O)[O-])cc1C(=O)c1ccccc1Cl [Nizofenone] |  |  |  | action to inhibit cerebral edemas ([1]; Japan Clinics, 43, 185, 1985): no action to inhibit cerebral edemas; consciousness troubles ([1]; Japan Clinics, 43, 185, 1985): helps alleviate consciousness troubles; protection of the brain from cerebral ischemia [1]: useful to protect the brain from cerebral ischemia |
| C1=NNC(c2cccnc2)C1 (stereo not drawn) [Compound 53, 5-(3-Pyridyl)-2-pyrazoline] | 16.7% | 600 mg/kg |  |  |
| O=C(C1CCCCC1)N1N=CCC1c1ccccc1 (stereo not drawn) [Compound 62, 1-Cyclohexylcarbonyl-5-phenyl-2-pyrazoline] |  | 630 mg/kg | 15.3% |  |
| CC1CC=NN1C(=O)c1cccnc1 (stereo not drawn) [Compound 17, 1-(3-Pyridylcarbonyl)-5-methyl-2-pyrazoline] | 34% | 850 mg/kg |  | Rate of Infarcted Area [4, 6]: 8.01 ± 0.54% |
| FC(F)(F)c1cccc(C2CC=NN2)c1 (stereo not drawn) [Compound 45, 5-(3-Trifluoromethylphenyl)-2-pyrazoline] | 30.4% | 630 mg/kg |  |  |
| C1=NNC(c2ccccc2)C1 (stereo not drawn) [Compound 31, 5-Phenyl-2-pyrazoline] | 32% | 540 mg/kg |  | Rate of Infarcted Area [4, 6]: 7.93 ± 0.56% |
| O=C(c1ccccn1)N1N=CCC1c1ccccc1 (stereo not drawn) [Compound 3, 1-(2-Pyridylcarbonyl)-5-phenyl-2-pyrazoline] |  | 560 mg/kg | 15.7% |  |
| O=C(c1cccnc1)N1N=CCC1c1ccccc1 (stereo not drawn) [Compound 1, 1-(3-Pyridylcarbonyl)-5-phenyl-2-pyrazoline] |  | 600 mg/kg | 36% | Rate of Infarcted Area [4, 7]: 5.03 ± 0.49% |
| O=C([O-])N1N=CCC1c1ccccc1.[Na+] (stereo not drawn) |  | 710 mg/kg |  | inhibition in vivo at 50 mg/kg [2]: 18.6% |
| COc1ccc(C2CC=NN2C(=O)c2cccnc2)cc1 (stereo not drawn) [Compound 6, 1-(3-Pyridylcarbonyl)-5-(4-methoxyphenyl)-2-pyrazoline] |  | 830 mg/kg | 19.3% |  |
| CCC1CC=NN1C(=O)OC (stereo not drawn) [Compound 30, 1-Methoxycarbonyl-5-ethyl-2-pyrazoline] | 29.1% | 740 mg/kg |  |  |
| Clc1ccccc1C1CC=NN1 (stereo not drawn) [Compound 34, 5-(2-Chlorophenyl)-2-pyrazoline] | 29.1% | 600 mg/kg |  | Rate of Infarcted Area [4, 6]: 8.56 ± 0.71% |
| O=C(c1ccc(C(F)(F)F)cc1)N1N=CCC1c1ccccc1 (stereo not drawn) [Compound 60, 1-(4-Trifluoromethylbenzoyl)-5-phenyl-2-pyrazoline] |  | 810 mg/kg | 20.9% |  |
| COc1ccccc1C1CC=NN1C(=O)c1cccnc1 (stereo not drawn) [Compound 4, 1-(3-Pyridylcarbonyl)-5-(2-methoxyphenyl)-2-pyrazoline] |  | 610 mg/kg | 28.3% |  |
| COc1ccccc1C1CC=NN1 (stereo not drawn) [Compound 40, 5-(2-Methoxylphenyl)-2-pyrazoline] | 25.7% | 560 mg/kg |  |  |
| O=C(c1ccncc1)N1N=CCC1c1ccccc1 (stereo not drawn) [Compound 2, 1-(4-Pyridylcarbonyl)-5-phenyl-2-pyrazoline] |  | 630 mg/kg | 30.5% |  |
| Fc1cccc(C2CC=NN2)c1 (stereo not drawn) [Compound 42, 5-(3-Fluorophenyl)-2-pyrazoline] | 23.9% | 710 mg/kg |  |  |
| CCOC(=O)N1N=CCC1c1ccccc1 (stereo not drawn) [Compound 25, 1-Ethoxycarbonyl-5-phenyl-2-pyrazoline] |  | 830 mg/kg |  | inhibition in vivo at 50 mg/kg [2, 8]: 27.2% |
| S=C(Nc1cccnc1)N1N=CCC1c1ccccc1 (stereo not drawn) [Compound 66, 1-[N-(3-pyridyl)thiocarbamoyl]-5-phenyl-2-pyrazoline] | 18.9% | 560 mg/kg |  |  |

| SMILES | inhibition in vivo at 25 mg/kg [2, 5] | LD50 at 48 h [3] | inhibition in vivo at 30 mg/kg [2, 5] | further results |
| --- | --- | --- | --- | --- |
| CCCC(C)C1(CC)C(=O)NC(=O)NC1=O (stereo not drawn) [pentobarbital] |  |  |  | protection of the brain from cerebral ischemia [1]: protect the brain from cerebral ischemia |
| O=C(Nc1cccnc1)N1N=CCC1c1ccccc1 (stereo not drawn) [Compound 65, 1-[N-(3-pyridyl)carbamoyl]-5-phenyl-2-pyrazoline] | 27.1% | 630 mg/kg |  |  |
| O=C(c1cnccn1)N1N=CCC1c1ccccc1 (stereo not drawn) [Compound 8, 1-Pyrazylcarbonyl-5-phenyl-2-pyrazoline] | 33% | 710 mg/kg |  |  |
| COc1cccc(C2CC=NN2C(=O)c2cccnc2)c1 (stereo not drawn) [Compound 5, 1-(3-Pyridylcarbonyl)-5-(3-methoxyphenyl)-2-pyrazoline] |  | 630 mg/kg | 20.7% |  |
| CCC1(c2ccccc2)C(=O)NC(=O)N(C)C1=O (stereo not drawn) [mefobarbital] |  |  |  | protection of the brain from cerebral ischemia [1]: protect the brain from cerebral ischemia |
| Cc1ccccc1C1CC=NN1 (stereo not drawn) [Compound 37, 5-(2-Methylphenyl)-2-pyrazoline] | 30.4% | 680 mg/kg |  |  |
| O=C(c1cccnc1)N1N=CCC1c1ccco1 (stereo not drawn) [Compound 7, 1-(3-Pyridylcarbonyl)-5-(2-furyl)-2-pyrazoline] |  | 1100 mg/kg | 31.2% | Rate of Infarcted Area [4, 6]: 6.96 ± 0.79% |
| O=C(c1cccnc1)N1N=CCC1c1ccc(Cl)cc1 (stereo not drawn) [Compound 11, 1-(3-Pyridylcarbonyl)-5-(4-chlorophenyl)-2-pyrazoline] | 29.3% | 710 mg/kg |  |  |
| CCOC(=O)N1N=CCC1C (stereo not drawn) [Compound 28, 1-Ethoxycarbonyl-5-methyl-2-pyrazoline] |  |  |  | Rate of Infarcted Area [4, 7]: 5.79 ± 0.43% |
| O=C(c1ccccc1)N1N=CCC1c1ccccc1 (stereo not drawn) [Compound 59, 1-Benzoyl-5-phenyl-2-pyrazoline] |  | 600 mg/kg | 21.7% | Rate of Infarcted Area [4, 6]: 7.69 ± 0.67% |
| CC(C)C1CC=NN1C(=O)c1cccnc1 (stereo not drawn) [Compound 22, 1-(3-Pyridylcarbonyl)-5-isopropyl-2-pyrazoline] |  | 830 mg/kg |  | inhibition in vivo at 50 mg/kg [2, 8]: 27.2% |
| CC(=O)N1N=CCC1c1ccccc1 (stereo not drawn) [Compound 56, -Acetyl-5-phenyl-2-pyrazoline] | 15.9% | 1100 mg/kg |  |  |
| O=C(c1cccs1)N1N=CCC1c1ccccc1 (stereo not drawn) [Compound 64, 1-(2-Thienylcarbonyl)-5-phenyl-2-pyrazoline] |  | 830 mg/kg | 28.5% |  |
| O=C(c1cccnc1)N1N=CCC1c1ccccc1F (stereo not drawn) [Compound 9, 1-(3-Pyridylcarbonyl)-5-(2-fluorophenyl)-2-pyrazoline] | 29.1% | 830 mg/kg |  |  |
| C1=NNC(c2ccncc2)C1 (stereo not drawn) [Compound 52, 5-(4-Pyridyl)-2-pyrazoline] | 21.8% | 540 mg/kg |  |  |
| O=C(CN1N=CCC1c1ccccc1)c1ccccc1 (stereo not drawn) [Compound 61, 1-Benzoylmethyl-5-phenyl-2-pyrazoline] |  | 540 mg/kg | 16.7% |  |
| Cc1ccccc1C1CC=NN1C(=O)c1cccnc1 (stereo not drawn) [Compound 10, 1-(3-Pyridylcarbonyl)-5-(2-methylphenyl)-2-pyrazoline] | 31.3% | 610 mg/kg |  |  |
| O=C(c1ccco1)N1N=CCC1c1ccccc1 (stereo not drawn) [Compound 63, 1-(2-Furylcarbonyl)-5-phenyl-2-pyrazoline] |  | 710 mg/kg | 26.1% |  |
